Measurements: ChEMBL document CHEMBL4393657, “Tetrazole hybrids and their antifungal activities” (2019)
≈ marks a conversion by molar mass, not a printed value.

Columns and labels:
Format in all cases: functional
[1] = test system: Candida albicans; assay: Antifungal activity against Candida albicans assessed as reduction in fungal cell growth incubated for 24 and 72 hrs by cup plate method
[2] = test system: Aspergillus flavus; assay: Antifungal activity against Aspergillus flavus assessed as reduction in fungal cell growth incubated for 24 and 72 hrs by cup plate method
[3] = test system: Fusarium oxysporum; assay: Antifungal activity against Fusarium oxysporum assessed as reduction in fungal cell growth incubated for 24 and 72 hrs by cup plate method
[4] = test system: Candida albicans; assay: Antifungal activity against Candida albicans assessed as inhibition zone at 125 ug/ml by disk diffusion method; conditions: read-out: IZ
[5] = test system: Candida albicans; assay: Antifungal activity against Candida albicans assessed as reduction in fungal cell growth incubated for 48 hrs by broth microdilution susceptibility method
[6] = test system: Aspergillus niger; assay: Antifungal activity against Aspergillus niger assessed as reduction in fungal cell growth incubated for 48 hrs by broth microdilution susceptibility method
[7] = test system: Candida albicans; assay: Antifungal activity against Candida albicans TA
[8] = test system: Candida albicans; assay: In vivo antifungal activity against Candida albicans TA infected in CDF-1 mouse dosed orally assessed as survival of mouse; conditions: po
[9] = test system: Candida albicans; assay: Antifungal activity against Candida albicans NCCS 3471 assessed as inhibition zone at 50 ug/ml incubated for 3 to 4 days by disk diffusion method; conditions: read-out: IZ
[10] = test system: Aspergillus fumigatus; assay: Antifungal activity against Aspergillus fumigatus NCIM 902 assessed as inhibition zone at 50 ug/ml incubated for 3 to 4 days by disk diffusion method; conditions: read-out: IZ
[11] = test system: Candida albicans; assay: Antifungal activity against Candida albicans assessed as inhibition zone at 250 ug/ml; conditions: read-out: IZ
[12] = test system: Aspergillus niger; assay: Antifungal activity against Aspergillus niger assessed as inhibition zone at 250 ug/ml; conditions: read-out: IZ

In the case of `CCOC(=O)C(C#N)C(c1cc2cc(OC)ccc2n2nnnc12)P(=O)(OCC)OCC` (stereo unspecified), the MIC [1] is reported as 10 to 25 µg/mL (≈ 21.7 to 54.2 µM), the MIC [2] is reported as 10 to 25 µg/mL (≈ 21.7 to 54.2 µM) and the MIC [3] is reported as 10 to 25 µg/mL (≈ 21.7 to 54.2 µM).
`Cc1ccc(/N=C/c2cc3cc(-c4nc5ccccc5[nH]4)ccc3n3nnnc23)cc1` gave a zone of inhibition at 125 µg/mL [4] of 7 to 12 mm.
`Clc1ccc(-c2nnn(-c3[se]nnc3-c3ccc(Cl)cc3)n2)cc1` was tested, and the MIC [5] was 6.25 µg/mL (≈ 14.8 µM) and the MIC [6] was 6.25 µg/mL (≈ 14.8 µM).
`COc1cccc2c1cc(/C=C/C(=O)c1cc(Br)ccc1O)c1nnnn12` gave an MIC [1] of 25 to 100 µg/mL (≈ 58.8 to 235 µM), an MIC [2] of 25 to 100 µg/mL (≈ 58.8 to 235 µM) and an MIC [3] of 25 to 100 µg/mL (≈ 58.8 to 235 µM).
Compound `C[C@@H](n1ncnn1)[C@](O)(Cn1cncn1)c1ccc(F)cc1F` has an MIC [7] of 100 µg/mL (≈ 311 µM).
`CN(C)c1ccc(/C=C2/C(=O)N(/N=C/c3cc4ccccc4n4nnnc34)C(=S)N(c3ccccc3)C2=O)cc1` gave an MIC [5] of no less than 100 µg/mL.
`Oc1ccc(/N=C/c2cc3cc(-c4nc5ccccc5[nH]4)ccc3n3nnnc23)cc1` was tested, and the zone of inhibition at 125 µg/mL [4] was 7 to 12 mm.
In the case of `C[C@@H](n1ncnn1)[C@](O)(Cn1cncn1)c1ccccc1F`, the MIC [7] is reported as 100 µg/mL (≈ 330 µM).
Work on `C[C@@H](n1nnn(-c2ccc(OCC(F)(F)C(F)F)cc2)c1=O)[C@](O)(Cn1cncn1)c1ccccc1` yielded an ED50 [8] of 0.71 to 2 mg/kg.
Compound `Brc1ccc(-n2nnnc2-c2cccnc2)cc1` has a zone of inhibition at 50 µg/mL [9] of 19 mm and a zone of inhibition at 50 µg/mL [10] of 17 mm.
`Clc1ccc(/N=C/c2cc3cc(-c4nc5ccccc5[nH]4)ccc3n3nnnc23)cc1` gave a zone of inhibition at 125 µg/mL [4] of 7 to 12 mm.
`CCOC(=O)C(C#N)C(c1cc2ccccc2n2nnnc12)P(=O)(OCC)OCC` (stereo unspecified) was tested, and the MIC [1] was 10 to 25 µg/mL (≈ 23.2 to 58 µM), the MIC [2] was 10 to 25 µg/mL (≈ 23.2 to 58 µM) and the MIC [3] was 10 to 25 µg/mL (≈ 23.2 to 58 µM).
`COc1ccc(-c2nn[se]c2-n2nnc(-c3ccccc3)n2)cc1` showed an MIC [5] of 100 to 400 µg/mL (≈ 261 to 1040 µM) and an MIC [6] of 100 to 400 µg/mL (≈ 261 to 1040 µM).
`Cc1ccc2cc(/C=C3\SC(=S)N(CC(=O)O)C3=O)c3nnnn3c2c1` was tested, and the MIC [1] was 25 to 50 µg/mL (≈ 64.9 to 130 µM), the MIC [2] was 25 to 50 µg/mL (≈ 64.9 to 130 µM) and the MIC [3] was 25 to 50 µg/mL (≈ 64.9 to 130 µM).
`CCOC(=O)C(C#N)C(c1cc2c(OCC)cccc2n2nnnc12)P(=O)(OCC)OCC` (stereo unspecified) gave an MIC [1] of 10 to 25 µg/mL (≈ 21 to 52.6 µM), an MIC [2] of 10 to 25 µg/mL (≈ 21 to 52.6 µM) and an MIC [3] of 10 to 25 µg/mL (≈ 21 to 52.6 µM).
`Clc1ccc(-c2nnnn2-c2nc3ccccc3s2)cc1` was tested, and the zone of inhibition at 250 µg/mL [11] was 13 to 23 mm and the zone of inhibition at 250 µg/mL [12] was 13 to 23 mm.
`S=C1N=C(c2ccccc2)CC(c2cc3ccccc3n3nnnc23)N1` (stereo unspecified) was tested, and the MIC [5] was no less than 100 µg/mL.
With `COc1ccc2c(c1)cc(/C=C/C(=O)c1cc(Br)ccc1O)c1nnnn12` the MIC [1] was 25 to 100 µg/mL (≈ 58.8 to 235 µM), the MIC [2] was 25 to 100 µg/mL (≈ 58.8 to 235 µM) and the MIC [3] was 25 to 100 µg/mL (≈ 58.8 to 235 µM).
In the case of `Cc1ccc(N2C(=O)/C(=C\c3ccccc3)C(=O)N(/N=C/c3cc4ccccc4n4nnnc34)C2=S)cc1`, the MIC [5] is reported as no less than 100 µg/mL.
For `C[C@@H](n1nnn(-c2ccc(C(F)(F)F)cc2)c1=O)[C@](O)(Cn1cncn1)c1ccccc1`, the ED50 [8] was 0.71 to 2 mg/kg.
Work on `CCOC(=O)C(C#N)C(c1cc2c(OC)cccc2n2nnnc12)P(=O)(OCC)OCC` (stereo unspecified) yielded an MIC [1] of 10 µg/mL (≈ 21.7 µM), an MIC [2] of 10 µg/mL (≈ 21.7 µM) and an MIC [3] of 10 to 25 µg/mL (≈ 21.7 to 54.2 µM).
With `C[C@@H](n1nnn(-c2ccc(OC(F)(F)F)cc2)c1=O)[C@](O)(Cn1cncn1)c1ccccc1` the ED50 [8] was 0.71 to 2 mg/kg.
For `O=[N+]([O-])c1cccc(-c2nnnn2-c2nc3ccccc3s2)c1`, the zone of inhibition at 250 µg/mL [11] was 13 to 23 mm and the zone of inhibition at 250 µg/mL [12] was 13 to 23 mm.
`C[C@@H](n1nnn(-c2ccc(F)cc2)c1=O)[C@](O)(Cn1cncn1)c1ccccc1` was tested, and the ED50 [8] was 0.71 to 2 mg/kg.
In the case of `Cc1cccc2c1cc(C1CC(c3cc(Br)ccc3O)=NN1)c1nnnn12` (stereo unspecified), the MIC [1] is reported as 25 to 100 µg/mL (≈ 59.1 to 236 µM), the MIC [2] is reported as 25 to 100 µg/mL (≈ 59.1 to 236 µM) and the MIC [3] is reported as 25 to 100 µg/mL (≈ 59.1 to 236 µM).
For `O=[N+]([O-])c1ccc(-c2nnnn2-c2nc3ccccc3s2)cc1`, the zone of inhibition at 250 µg/mL [11] was 13 to 23 mm and the zone of inhibition at 250 µg/mL [12] was 13 to 23 mm.
Work on `C[C@@H](n1nnn(-c2ccc(OCC(F)(F)F)cc2)c1=O)[C@](O)(Cn1cncn1)c1ccccc1` yielded an ED50 [8] of 0.71 to 2 mg/kg.
With `C[C@@H](n1cnnn1)[C@](O)(Cn1cncn1)c1ccc(Cl)cc1` the MIC [7] was 12.5 to 100 µg/mL (≈ 39.1 to 313 µM) and the ED50 [8] was 0.18 to 1.54 mg/kg.
`COc1ccccc1-n1nnnc1-c1cccnc1` gave a zone of inhibition at 50 µg/mL [9] of 10 to 19 mm and a zone of inhibition at 50 µg/mL [10] of 10 to 19 mm.
`COc1ccc(-c2nn[se]c2-n2nnc(-c3ccccc3Cl)n2)cc1` showed an MIC [5] of 100 to 400 µg/mL (≈ 239 to 958 µM) and an MIC [6] of 100 to 400 µg/mL (≈ 239 to 958 µM).
For `O=C(/C=C/c1cc2ccccc2n2nnnc12)c1cc(Br)ccc1O`, the MIC [1] was 25 to 100 µg/mL (≈ 63.3 to 253 µM), the MIC [2] was 25 to 100 µg/mL (≈ 63.3 to 253 µM) and the MIC [3] was 25 to 100 µg/mL (≈ 63.3 to 253 µM).
Compound `COc1cccc2c1cc(C1CC(c3cc(Br)ccc3O)=NN1)c1nnnn12` (stereo unspecified) has an MIC [1] of 25 to 100 µg/mL (≈ 56.9 to 228 µM), an MIC [2] of 25 to 100 µg/mL (≈ 56.9 to 228 µM) and an MIC [3] of 25 to 100 µg/mL (≈ 56.9 to 228 µM).
Work on `Cc1ccc2cc(/C=C/C(=O)c3cc(Br)ccc3O)c3nnnn3c2c1` yielded an MIC [1] of 25 to 100 µg/mL (≈ 61.1 to 244 µM), an MIC [2] of 25 to 100 µg/mL (≈ 61.1 to 244 µM) and an MIC [3] of 25 to 100 µg/mL (≈ 61.1 to 244 µM).
`Clc1ccccc1-n1nnnc1-c1cccnc1` was tested, and the zone of inhibition at 50 µg/mL [9] was 17 mm and the zone of inhibition at 50 µg/mL [10] was 15 mm.
With `Cc1cccc2c1cc(/C=C/C(=O)c1cc(Br)ccc1O)c1nnnn12` the MIC [1] was 25 to 100 µg/mL (≈ 61.1 to 244 µM), the MIC [2] was 25 to 100 µg/mL (≈ 61.1 to 244 µM) and the MIC [3] was 25 to 100 µg/mL (≈ 61.1 to 244 µM).
In the case of `COc1ccc2cc(/C=C/C(=O)c3cc(Br)ccc3O)c3nnnn3c2c1`, the MIC [1] is reported as 25 to 100 µg/mL (≈ 58.8 to 235 µM), the MIC [2] is reported as 25 to 100 µg/mL (≈ 58.8 to 235 µM) and the MIC [3] is reported as 25 to 100 µg/mL (≈ 58.8 to 235 µM).
Compound `O=C1/C(=C/c2ccccc2)C(=O)N(c2ccc(Cl)cc2)C(=S)N1/N=C/c1cc2ccccc2n2nnnc12` has an MIC [5] of no less than 100 µg/mL.
Work on `c1ccc(-c2nnnn2-c2nc3ccccc3s2)cc1` yielded a zone of inhibition at 250 µg/mL [11] of 13 to 23 mm and a zone of inhibition at 250 µg/mL [12] of 13 to 23 mm.
`Cc1ccc(N2C(=O)/C(=C\c3ccc(N(C)C)cc3)C(=O)N(/N=C/c3cc4ccccc4n4nnnc34)C2=S)cc1` showed an MIC [5] of no less than 100 µg/mL.
